The subject of this test is 885724-159-R-J1-PDC complex spheroid viability. The experiment in a line: Anticancer human tumor 885724-159-R-J1-PDC patient-derived pancreatic adenocarcinoma cell line growth inhibition [POLQ]. Conditions: for viability, T/C: stronger effect = lower value. Here is the method: Multicellular complex tumor spheroid response to Polymerase (POL) inhibitors (novobiocin, ART-558, RP6685) in combination with a variety of drugs and investigational agents in selected tumor cell lines
The POL inhibitors (novobiocin, ART-558, and RP6685) were evaluated both individually and in combination with standard of care and investigational anticancer small molecules within a complex spheroid model of solid tumors. . Complex spheroids include a stromal component modeled by human endothelial cells (HUVEC) and fibroblasts modeled by human mesenchymal stem cells (MSCs). The concentration ranges selected for each drug and investigational agent were based upon clinically achievable concentrations if the clinical Cmax of the agent was known.
Compounds. The drugs and investigational agents: novobiocin (NSC847541), ART-558 (NSC835418), RP-6685 (NSC848927), peposertib (NSC802822), ceralasertib (NSC780249), elimusertib (NSC800525), camonsertib (NSC841442), AZD-1390 (NSC803789), olaparib (NSC753686), talazoparib (NSC767125), rucaparib (NSC756644), sotorasib (NSC818433), MRTX-1133 (NSC836407), SN-38 (NSC673596), topotecan (NSC609699), epotoside (NSC141540), doxorubicin (NSC123127), gemcitabine (NSC613327), 5-fluorouracil (NSC19893), paclitaxel (NSC125973), vemurafenib (NSC761431), MSA-2 (NSC828583), SN-011 (NSC837082), adavosertib (NSC754352), prexasertib (NSC758257), carboplatin (NSC241240) and oxaliplatin (NSC266046), were obtained from the National Cancer Institute (NCI) Developmental Therapeutics Program Chemical Repository (21). The FDA-approved anticancer drug set is available from the Developmental Therapeutics Program at https://dtp.cancer.gov/organization/dscb/obtaining/. […] The stock solutions were prepared in dimethyl sulfoxide (DMSO, Sigma-Aldrich, St. Louis, MO, cat. D2650), except for the platinum compounds which were prepared in saline (Quality Biological, Gaithersburg, MD, cat. 114-055-101), at 800-fold the tested concentration and stored at -70 degrees C prior to their use. All drugs and investigational agents were tested over a range starting from a high concentration at or near the clinical Cmax and decreasing in half-log increments. If the clinical Cmax for an agent had not been determined, the highest concentration tested was 10 microM, except for SN-38, which was tested at a high concentration of 1 microM.
Cell Culture. All cells were maintained in an incubator at 37 degrees C and 5% CO2 with 95% humidity. The PDC lines were cultured according to standard operating procedures established by the NCI PDMR (https://pdmr.cancer.gov). Table 3 of the manuscript, lists the cell lines along with the number of the three cell types plated to form the mct-spheroids and media for tumor cell growth. After thawing, all PDC lines, except 997537-175-T-J1-PDC and 415267-285-R-J2-PDC, were cultured in Matrigel-coated flasks prepared with a working solution of 1X Ham's F-12 nutrient mix, without supplementation (Thermo Fisher Scientific, cat. 11765054), 100 U/mL penicillin-streptomycin (Thermo Fisher Scientific, cat. 15140122), and 2.5% Matrigel (Corning Inc., Corning, NY, cat. 354248) for the first three passages. The two PDC lines 997537-175-T-J1-PDC and 415267-285-R-J2-PDC were cultured on uncoated flasks. The 857933-349-R-J2-PDC line was cultured in 6C/Colon 1B media containing advanced DMEM/F-12 (Thermo Fisher Scientific, cat. 12634028), 10 mM HEPES (Thermo Fisher Scientific, cat. 15630080), 1X GlutaMAX supplement (Thermo Fisher Scientific, cat. 35050061), 0.1 mg/mL primocin (InvivoGen, San Diego, CA, cat. ant-pm-2), 10% defined fetal bovine serum, heat inactivated (HyClone Laboratories Inc., Logan, UT, cat. SH30070.03HI), 50% L-WRN conditioned media (ATCC, cat. CRL-3276), 1.25 mM N-Acetyl-L-cysteine (Sigma-Aldrich, cat. A9165), 10 mM nicotinamide (Sigma-Aldrich, cat. N0636), 1X B-27 supplement (Thermo Fisher Scientific, cat. 17504044), 1X N-2 supplement (Thermo Fisher Scientific, cat. […]

This is an account of results in PubChem BioAssay AID1963832 (Molecular Pharmacology Branch, DTP, NCI, 2024).

Where “and” joins values, the source holds several entries; their conditions need not be identical. Equal entries are not always repeated.
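Also: spheroids exposed to compounds for 7 days.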

What is called IC50 is the point on the concentration scale where inhibition reaches its midpoint. As usually defined, the viability, T/C is the ratio of treated to control. Consider `CC(=O)O[C@H]1C(=O)[C@@]2(C)[C@H]([C@H](OC(=O)c3ccccc3)[C@]3(O)C[C@H](OC(=O)[C@H](O)[C@@H](NC(=O)c4ccccc4)c4ccccc4)C(C)=C1C3(C)C)[C@]1(OC(C)=O)CO[C@@H]1C[C@@H]2O` + Cc1cccc(N(C)C(=O)C2C(O)CCN2c2nc(C)cc(C(F)(F)F)c2C#N)c1, for which the IC50 reads like this: (curve of first compound, second compound 0.0316 µM) > 3000 nM; (curve of first compound, second compound 0.1 µM) > 3000 nM; (curve of first compound, second compound 0.316 µM) > 3000 nM; (curve of first compound, second compound 1 µM) > 3000 nM; (curve of first compound, second compound 3.16 µM) > 3000 nM; (curve of first compound, second compound 10 µM) > 3000 nM. Moreover, the viability, T/C (second compound 0.0316 µM, first compound 0.00949 µM) was 76.7%; the viability, T/C (second compound 0.0316 µM, first compound 0.03 µM) is 57.6%; the viability, T/C (second compound 0.0316 µM, first compound 0.0949 µM) was 58.8%; the viability, T/C (second compound 0.0316 µM, first compound 0.3 µM) is 62.2%; the viability, T/C (second compound 0.0316 µM, first compound 0.949 µM) was 70.6%; the viability, T/C (second compound 0.0316 µM, first compound 3 µM) was 61%. The viability, T/C reads like this: (second compound 0.1 µM, first compound 0.00949 µM) 75.1%; (second compound 0.1 µM, first compound 0.03 µM) 59.4%; (second compound 0.1 µM, first compound 0.0949 µM) 59.8%; (second compound 0.1 µM, first compound 0.3 µM) 70.4%; (second compound 0.1 µM, first compound 0.949 µM) 67.3%; (second compound 0.1 µM, first compound 3 µM) 70.6%. For the same molecule, the viability, T/C (second compound 0.316 µM, first compound 0.00949 µM) was 67.6%; the viability, T/C (second compound 0.316 µM, first compound 0.03 µM) is 59.6%; the viability, T/C (second compound 0.316 µM, first compound 0.0949 µM) is 63%; the viability, T/C (second compound 0.316 µM, first compound 0.3 µM) was 63.6%; the viability, T/C (second compound 0.316 µM, first compound 0.949 µM) is 75.4%; the viability, T/C (second compound 0.316 µM, first compound 3 µM) was 69.7%. For the same molecule, the viability, T/C was 68.2% (second compound 1 µM, first compound 0.00949 µM); 66.3% (second compound 1 µM, first compound 0.03 µM); 62.8% (second compound 1 µM, first compound 0.0949 µM); 67.2% (second compound 1 µM, first compound 0.3 µM); 69.1% (second compound 1 µM, first compound 0.949 µM); 68.9% (second compound 1 µM, first compound 3 µM). In addition, the viability, T/C is, setting by setting: (second compound 3.16 µM, first compound 0.00949 µM) 62.5%; (second compound 3.16 µM, first compound 0.03 µM) 55.1%; (second compound 3.16 µM, first compound 0.0949 µM) 59.4%; (second compound 3.16 µM, first compound 0.3 µM) 63.8%; (second compound 3.16 µM, first compound 0.949 µM) 67.6%; (second compound 3.16 µM, first compound 3 µM) 64.5%. The viability, T/C runs as follows: (second compound 10 µM, first compound 0.00949 µM) 59.1%; (second compound 10 µM, first compound 0.03 µM) 61.1%; (second compound 10 µM, first compound 0.0949 µM) 61%; (second compound 10 µM, first compound 0.3 µM) 66%; (second compound 10 µM, first compound 0.949 µM) 62.7%; (second compound 10 µM, first compound 3 µM) 72%.
Consider `CC1COCCN1c1cc(-c2ccnn2C)c2ccnc(-c3ccn[nH]3)c2n1` (stereo unspecified), for which the viability, T/C runs as follows: (compound 0.0316 µM) 73.3% and 80% and 94.5%; (compound 0.1 µM) 57.2% and 56.3% and 59.7%; (compound 0.316 µM) 49.6% and 42.2% and 46.3%; (compound 1 µM) 44.4% and 39.4% and 45.7%; (compound 3.16 µM) 43.7% and 39.8% and 43.8%; (compound 10 µM) 38.9% and 38.2% and 38.7%. Further, where the note is “curve of compound”, the IC50 was 283 nM and 167 nM and 246 nM.
Regarding `C=CCn1c(=O)c2cnc(Nc3ccc(N4CCN(C)CC4)cc3)nc2n1-c1cccc(C(C)(C)O)n1`, the viability, T/C is 96.5% and 99.3% and 105% (compound 0.00316 µM); 95.4% and 94.4% and 90.4% (compound 0.01 µM); 93.3% and 87.4% and 93.7% (compound 0.0316 µM); 85.1% and 77.1% and 79.6% (compound 0.1 µM); 55.8% and 56.4% and 55.1% (compound 0.316 µM); 44.7% and 48.3% and 49.7% (compound 1 µM). In addition, the IC50 (curve of compound) was 577 nM and 767 nM and 846 nM.
